Consider 5 compounds from ChEMBL document CHEMBL6078710, “Design, synthesis and biological evaluation of new SIRT3 activators for the treatment of triple-negative breast cancer” (Bioorg Med Chem, 2025).

The test system of the first assay is BT-549. Briefly: Antiproliferative activity against human BT-549 cells assessed as inhibition of cell proliferation by MTT assay.
For `CCOC(=O)C1=CN(C(=O)c2cc(OC)c(OC)c(OC)c2)C=C(C(=O)OCC)C1c1ccccc1`, the half-inhibitory concentration (IC50) (commonly the concentration that gives 50% inhibition) is 4.79 µM.

Regarding `CCOC(=O)C1=CN(C(=O)c2ccc(OC)c(OC)c2)C=C(C(=O)OCC)C1c1ccc(S(C)(=O)=O)cc1`, the IC50 was determined as 11.9 µM.

With `CCOC(=O)C1=CN(C(=O)c2cc(OC)c(OC)c(OC)c2)C=C(C(=O)OCC)C1c1cnc(Cl)c(Cl)c1`, the IC50 is 2.77 µM.

For `CCOC(=O)C1=CN(C(=O)c2cc(OC)c(OC)c(OC)c2)C=C(C(=O)OCC)C1c1ccc(S(C)(=O)=O)cc1`, the IC50 was 8.21 µM.

The next assay concerns MDA-MB-231. Briefly: Antiproliferative activity against human MDA-MB-231 cells assessed as inhibition of cell proliferation by MTT assay. In general terms: Tetrazolium dyes change colour on reduction, which living cells bring about.
Consider `CCOC(=O)C1=CN(C(=O)c2cc(OC)c(OC)c(OC)c2)C=C(C(=O)OCC)C1c1ccccc1`, for which the IC50 is 5.23 µM.

In the case of `CCOC(=O)C1=CN(C(=O)c2ccc(OC)c(OC)c2)C=C(C(=O)OCC)C1c1ccc(S(C)(=O)=O)cc1`, the IC50 stood at 15.2 µM.

`CCOC(=O)C1=CN(C(=O)c2cc(OC)c(OC)c(OC)c2)C=C(C(=O)OCC)C1c1cnc(Cl)c(Cl)c1`: the concentration for half-maximal inhibition (IC50) was 5.78 µM.

As to `CCOC(=O)C1=CN(C(=O)c2cc(OC)c(OC)c(OC)c2)C=C(C(=O)OCC)C1c1ccc(S(C)(=O)=O)cc1`, the half-maximal inhibitory concentration (IC50) was 14.2 µM.

A further assay addresses T1, NAD-dependent protein deacetylase sirtuin-3, mitochondrial (Homo sapiens, UniProt Q9NTG7).
T1 sequence (Q9NTG7 whole entry): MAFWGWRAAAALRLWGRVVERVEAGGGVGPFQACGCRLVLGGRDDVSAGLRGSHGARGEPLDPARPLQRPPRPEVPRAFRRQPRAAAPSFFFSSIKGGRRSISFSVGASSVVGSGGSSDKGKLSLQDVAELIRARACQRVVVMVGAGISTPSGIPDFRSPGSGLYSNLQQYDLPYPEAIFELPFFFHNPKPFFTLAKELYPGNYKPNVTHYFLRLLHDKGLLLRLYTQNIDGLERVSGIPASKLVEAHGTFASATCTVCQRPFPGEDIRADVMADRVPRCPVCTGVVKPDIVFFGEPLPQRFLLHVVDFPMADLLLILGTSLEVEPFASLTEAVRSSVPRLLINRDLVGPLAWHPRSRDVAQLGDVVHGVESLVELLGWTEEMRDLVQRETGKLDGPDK
Briefly: Activation of SIRT3 (unknown origin).
For the compound `CC(C)C[C@@H]1NC(=O)CCN2C(=O)CC3(CC(C)(C)C(=O)N3S(=O)(=O)c3cccc(c3)C(=O)OCCOC(=O)[C@H](Cc3ccccc3)NC1=O)C2=O` (some centres undefined), the EC50 (in general, the concentration at which the effect is half-maximal) was 29.4 µM.
